The values that follow come from PubChem BioAssay (NCI).

Molecules are shown by their SMILES.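 Dose response: 5 concentrations. Exposure: 48 h. Format: 96-well plates. Endpoint: linear interpolation; highest concentration if not reached. GI50: concentration for 50% inhibition of growth. TGI: total growth inhibition.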

Some test systems named below: A549 NSCLC; HCC-2998 colon; HCT-15 colon; HS 578T breast; IGROV1 ovarian; MOLT-4 leukemia; NCI-H460 lung; NCI-H522 lung; SF-268 CNS; SK-OV-3 ovarian.
Test in all cases: growth of human tumour cells (NCI), 48 h

`O=C(CC12CC3CC(CC(C3)C1)C2)NCCOCCOCCNC(=O)c1cc2c(o1)C(=O)c1ccccc1C2=O`: the GI50 in the assay with A549 NSCLC was 0.22 µM; with HCC-2998 colon, 1.78 µM; in the assay on HCT-15 colon it was 0.867 µM; in the assay with HS 578T breast, 1.43 µM; in the assay on IGROV1 ovarian, 1.41 µM; in the assay with MOLT-4 leukemia, 1.97 µM. Besides, the GI50 in the assay with NCI-H460 lung is 0.317 µM; in the assay on NCI-H522 lung it was 1.34 µM; with SF-268 CNS, 1.68 µM; in the assay with SK-OV-3 ovarian, 2.19 µM. Moreover, the TGI in the assay on A549 NSCLC was 0.51 µM; with HCC-2998 colon it was 3.39 µM; with HCT-15 colon, 2.39 µM; in the assay on HS 578T breast, 5.18 µM; in the assay with IGROV1 ovarian it was 3.21 µM; in the assay on MOLT-4 leukemia it was 4.98 µM. Also, the TGI in the assay on NCI-H460 lung was 1 µM; in the assay with NCI-H522 lung, 3.04 µM; in the assay on SF-268 CNS it was 3.9 µM; in the assay on SK-OV-3 ovarian, 4.71 µM.
`CCOc1ccc(NC(=O)Nc2cc(C(C)C)ccc2C)cc1`: the GI50 in the assay with A549 NSCLC was 4.56 µM; with HCC-2998 colon, 11 µM; with HCT-15 colon, 28.7 µM; in the assay with HS 578T breast, 2.32 µM; in the assay with IGROV1 ovarian it was 6.37 µM; with MOLT-4 leukemia it was 9.57 µM. Besides, the GI50 with NCI-H460 lung was 9.22 µM; in the assay on NCI-H522 lung it was 9.53 µM; in the assay on SF-268 CNS, 4.36 µM; in the assay with SK-OV-3 ovarian, 12.3 µM. Also, the TGI in the assay with A549 NSCLC was 17.6 µM; in the assay on HCC-2998 colon it was above 92.2 µM; in the assay on HCT-15 colon, above 100 µM; with HS 578T breast it was 7.06 µM; in the assay on IGROV1 ovarian, 15.7 µM; with MOLT-4 leukemia, above 100 µM. Further, the TGI in the assay on NCI-H460 lung is above 100 µM; in the assay on NCI-H522 lung, 78.3 µM; in the assay on SF-268 CNS it was 14.7 µM; with SK-OV-3 ovarian, 35.4 µM.
On to `O=C1Nc2ccc(F)c3c(OCCO)cc(-c4ccc[nH]4)c1c23`, for which the GI50 is 1.21 µM with A549 NSCLC; 2.63 µM with HCC-2998 colon; 0.957 µM in the assay on HCT-15 colon; 1.06 µM in the assay on HS 578T breast; 1.86 µM with IGROV1 ovarian; 1.21 µM with MOLT-4 leukemia. For the same compound, the GI50 with NCI-H460 lung is 0.927 µM; with NCI-H522 lung, 2.12 µM; in the assay with SF-268 CNS, 2.66 µM; in the assay on SK-OV-3 ovarian it was 1.47 µM. The TGI in the assay on A549 NSCLC came out at 8.57 µM; in the assay on HCC-2998 colon it was 10.1 µM; with HCT-15 colon it was 7.87 µM; in the assay with HS 578T breast, 10.2 µM; with IGROV1 ovarian it was 10.4 µM; in the assay on MOLT-4 leukemia, 10.3 µM. In addition, the TGI turned out to be 5.14 µM in the assay on NCI-H460 lung, 11.6 µM in the assay with NCI-H522 lung, 6.87 µM in the assay with SF-268 CNS and 25 µM in the assay on SK-OV-3 ovarian.
On to `c1ccc2c(c1)O[As](O[As]1Oc3ccccc3O1)O2`, for which the GI50 was 12 µM with A549 NSCLC; 4.96 µM with HCC-2998 colon; 2.33 µM in the assay on HCT-15 colon; 3.47 µM with HS 578T breast; 1.56 µM with IGROV1 ovarian; 2.45 µM in the assay with MOLT-4 leukemia. Besides, the GI50 was 4.43 µM in the assay on NCI-H460 lung, 0.548 µM in the assay on NCI-H522 lung, 2.47 µM in the assay with SF-268 CNS and 11.7 µM with SK-OV-3 ovarian. The TGI with A549 NSCLC came out at 47.8 µM; in the assay on HCC-2998 colon, 18.4 µM; with HCT-15 colon, 17 µM; in the assay on HS 578T breast, 65.9 µM; in the assay with IGROV1 ovarian it was 10.5 µM; with MOLT-4 leukemia it was 7.21 µM. Further, the TGI is 23.6 µM in the assay with NCI-H460 lung, 2.06 µM with NCI-H522 lung, 12.1 µM in the assay on SF-268 CNS and 26 µM in the assay with SK-OV-3 ovarian.
`COc1ccc(-c2nc(-c3nc4ccc(F)cc4[nH]3)cc3c2[nH]c2ccccc23)cc1`: the GI50 is 2.21 µM with A549 NSCLC; 3.71 µM with HCC-2998 colon; 2.82 µM in the assay with HCT-15 colon; 2.82 µM in the assay with HS 578T breast; 2.49 µM in the assay on IGROV1 ovarian; 1.56 µM in the assay with MOLT-4 leukemia. Besides, the GI50 with NCI-H460 lung was 1.98 µM; in the assay on NCI-H522 lung, 2 µM; in the assay with SF-268 CNS, 3.24 µM; in the assay with SK-OV-3 ovarian, 4 µM. Moreover, the TGI is 7.5 µM in the assay with A549 NSCLC; 26.2 µM in the assay on HCC-2998 colon; above 100 µM in the assay on HCT-15 colon; above 100 µM with HS 578T breast; 9.7 µM in the assay with IGROV1 ovarian; 6.14 µM in the assay with MOLT-4 leukemia. Besides, the TGI was 5.81 µM in the assay with NCI-H460 lung, 5.97 µM in the assay on NCI-H522 lung, above 100 µM with SF-268 CNS and above 100 µM in the assay with SK-OV-3 ovarian.
On to `CN(C(=O)C1CCCCC1)c1ccccc1I(=O)=O`, for which the GI50 in the assay on A549 NSCLC is 55.9 µM; in the assay on HCC-2998 colon, 70.3 µM; with HCT-15 colon it was 23.3 µM; with HS 578T breast, 52.9 µM; in the assay on IGROV1 ovarian it was 52.2 µM; in the assay with MOLT-4 leukemia, 18 µM. The GI50 was 48 µM in the assay with NCI-H460 lung, 16.3 µM with NCI-H522 lung, 36.8 µM in the assay on SF-268 CNS and 32.4 µM in the assay with SK-OV-3 ovarian. Further, the TGI with A549 NSCLC was above 100 µM; with HCC-2998 colon, above 100 µM; in the assay with HCT-15 colon it was 59.2 µM; with HS 578T breast, above 100 µM; with IGROV1 ovarian, above 100 µM; in the assay on MOLT-4 leukemia, 51.8 µM. The TGI with NCI-H460 lung is above 100 µM; in the assay on NCI-H522 lung it was 30.2 µM; with SF-268 CNS, above 100 µM; in the assay on SK-OV-3 ovarian, above 100 µM.
Consider `Cc1nc2sc(C(=O)Nc3cccc4ccccc34)c(N)c2cc1C(C)O` (stereo not given), for which the GI50 with A549 NSCLC is 0.345 µM; with HCC-2998 colon it was 0.647 µM; in the assay on HCT-15 colon it was 0.189 µM; in the assay on HS 578T breast, 0.121 µM; in the assay on IGROV1 ovarian, 0.308 µM; in the assay with MOLT-4 leukemia, 0.227 µM. Further, the GI50 in the assay with NCI-H460 lung is 0.184 µM; with NCI-H522 lung it was 0.207 µM; with SF-268 CNS it was 0.367 µM; in the assay on SK-OV-3 ovarian, 0.196 µM. For the same compound, the TGI with A549 NSCLC, in the assay with HCC-2998 colon, in the assay with HCT-15 colon, in the assay with HS 578T breast, in the assay with IGROV1 ovarian and in the assay on MOLT-4 leukemia was above 50 µM throughout. Further, the TGI is 9.91 µM in the assay on NCI-H460 lung, above 22.4 µM in the assay on NCI-H522 lung, above 50 µM in the assay on SF-268 CNS and above 50 µM in the assay on SK-OV-3 ovarian.
